Measured values: ChEMBL document CHEMBL4004849, “Tetrazolylmethyl quinolines: Design, docking studies, synthesis, anticancer and antifungal analyses” (2017)
Calls of active or inactive are those of the source.

Legend:
Assay type in all cases: functional
HL-60(TB) = assay: Growth inhibition of human HL-60(TB) cells at 10^-5 M incubated for 48 hrs by sulforhodamine B assay relative to control
MOLT-4 = assay: Growth inhibition of human MOLT4 cells at 10^-5 M incubated for 48 hrs by sulforhodamine B assay relative to control
SR = assay: Growth inhibition of human SR cells at 10^-5 M incubated for 48 hrs by sulforhodamine B assay relative to control
A549 = assay: Growth inhibition of human A549/ATCC cells at 10^-5 M incubated for 48 hrs by sulforhodamine B assay relative to control
EKVX = assay: Growth inhibition of human EKVX cells at 10^-5 M incubated for 48 hrs by sulforhodamine B assay relative to control
NCI-H226 = assay: Growth inhibition of human NCI-H226 cells at 10^-5 M incubated for 48 hrs by sulforhodamine B assay relative to control
NCI-H522 = assay: Growth inhibition of human NCI-H522 cells at 10^-5 M incubated for 48 hrs by sulforhodamine B assay relative to control
COLO 205 = assay: Growth inhibition of human COLO205 cells at 10^-5 M incubated for 48 hrs by sulforhodamine B assay relative to control
HCC 2998 = assay: Growth inhibition of human HCC2998 cells at 10^-5 M incubated for 48 hrs by sulforhodamine B assay relative to control
HCT-116 = assay: Growth inhibition of human HCT116 cells at 10^-5 M incubated for 48 hrs by sulforhodamine B assay relative to control
HCT-15 = assay: Growth inhibition of human HCT15 cells at 10^-5 M incubated for 48 hrs by sulforhodamine B assay relative to control
HT-29 = assay: Growth inhibition of human HT-29 cells at 10^-5 M incubated for 48 hrs by sulforhodamine B assay relative to control
KM12 = assay: Growth inhibition of human KM12 cells at 10^-5 M incubated for 48 hrs by sulforhodamine B assay relative to control
SF-268 = assay: Growth inhibition of human SF268 cells at 10^-5 M incubated for 48 hrs by sulforhodamine B assay relative to control
SF-295 = assay: Growth inhibition of human SF295 cells at 10^-5 M incubated for 48 hrs by sulforhodamine B assay relative to control
SF-539 = assay: Growth inhibition of human SF539 cells at 10^-5 M incubated for 48 hrs by sulforhodamine B assay relative to control
SNB-19 = assay: Growth inhibition of human SNB19 cells at 10^-5 M incubated for 48 hrs by sulforhodamine B assay relative to control
SNB-75 = assay: Growth inhibition of human SNB75 cells at 10^-5 M incubated for 48 hrs by sulforhodamine B assay relative to control
U-251 = assay: Growth inhibition of human U251 cells at 10^-5 M incubated for 48 hrs by sulforhodamine B assay relative to control
LOX IMVI = assay: Growth inhibition of human LOXIMVI cells at 10^-5 M incubated for 48 hrs by sulforhodamine B assay relative to control
Malme-3M = assay: Growth inhibition of human MALME-3M cells at 10^-5 M incubated for 48 hrs by sulforhodamine B assay relative to control
M14 = assay: Growth inhibition of human M14 cells at 10^-5 M incubated for 48 hrs by sulforhodamine B assay relative to control
MDA-MB-435 = assay: Growth inhibition of human MDA-MB-435 cells at 10^-5 M incubated for 48 hrs by sulforhodamine B assay relative to control
SK-MEL-2 = assay: Growth inhibition of human SK-MEL-2 cells at 10^-5 M incubated for 48 hrs by sulforhodamine B assay relative to control
SK-MEL-28 = assay: Growth inhibition of human SK-MEL-28 cells at 10^-5 M incubated for 48 hrs by sulforhodamine B assay relative to control
SK-MEL-5 = assay: Growth inhibition of human SK-MEL-5 cells at 10^-5 M incubated for 48 hrs by sulforhodamine B assay relative to control
UACC-257 = assay: Growth inhibition of human UACC257 cells at 10^-5 M incubated for 48 hrs by sulforhodamine B assay relative to control
OVCAR-3 = assay: Growth inhibition of human OVCAR3 cells at 10^-5 M incubated for 48 hrs by sulforhodamine B assay relative to control
OVCAR-4 = assay: Growth inhibition of human OVCAR4 cells at 10^-5 M incubated for 48 hrs by sulforhodamine B assay relative to control
OVCAR-5 = assay: Growth inhibition of human OVCAR5 cells at 10^-5 M incubated for 48 hrs by sulforhodamine B assay relative to control
NCI/ADR-RES = assay: Growth inhibition of human NCI-ADR-RES cells at 10^-5 M incubated for 48 hrs by sulforhodamine B assay relative to control
SK-OV-3 = assay: Growth inhibition of human SKOV3 cells at 10^-5 M incubated for 48 hrs by sulforhodamine B assay relative to control
786-0 = assay: Growth inhibition of human 786-0 cells at 10^-5 M incubated for 48 hrs by sulforhodamine B assay relative to control
CAKI-1 = assay: Growth inhibition of human Caki1 cells at 10^-5 M incubated for 48 hrs by sulforhodamine B assay relative to control
UO-31 = assay: Growth inhibition of human UO31 cells at 10^-5 M incubated for 48 hrs by sulforhodamine B assay relative to control
MCF7 = assay: Growth inhibition of human MCF7 cells at 10^-5 M incubated for 48 hrs by sulforhodamine B assay relative to control
MDA-MB-231 = assay: Growth inhibition of human MDA-MB-231/ATCC cells at 10^-5 M incubated for 48 hrs by sulforhodamine B assay relative to control
Hs-578T = assay: Growth inhibition of human Hs 578T cells at 10^-5 M incubated for 48 hrs by sulforhodamine B assay relative to control
BT-549 = assay: Growth inhibition of human BT549 cells at 10^-5 M incubated for 48 hrs by sulforhodamine B assay relative to control
T47D = assay: Growth inhibition of human T47D cells at 10^-5 M incubated for 48 hrs by sulforhodamine B assay relative to control
MDA-MB-468 = assay: Growth inhibition of human MDA-MB-468 cells at 10^-5 M incubated for 48 hrs by sulforhodamine B assay relative to control
Candida albicans = assay: Antifungal activity against Candida albicans after 24 hrs by serial dilution method
Aspergillus fumigatus [1] = assay: Antifungal activity against Aspergillus fumigatus at 100 ug/ml by disc diffusion method; conditions: read-out: IZ
Aspergillus fumigatus [2] = assay: Antifungal activity against Aspergillus fumigatus after 24 hrs by serial dilution method

Fc1ccc2nc(Cl)c(Cn3nnnc3Cc3ccccc3)cc2c1
10 mm: zone of inhibition at 100 µg/mL (Aspergillus fumigatus [1])
25 µg/mL: MIC (Candida albicans)
10 µg/mL: MIC (Aspergillus fumigatus [2])
active: growth inhibition (GI) (HL-60(TB)) | growth inhibition (GI) (MOLT-4) | growth inhibition (GI) (SR) | growth inhibition (GI) (A549) | growth inhibition (GI) (EKVX) | growth inhibition (GI) (NCI-H226) | growth inhibition (GI) (NCI-H522) | growth inhibition (GI) (COLO 205) | growth inhibition (GI) (HCC 2998) | growth inhibition (GI) (HCT-116) | growth inhibition (GI) (HCT-15) | growth inhibition (GI) (HT-29) | growth inhibition (GI) (KM12) | growth inhibition (GI) (SF-268) | growth inhibition (GI) (SF-295) | growth inhibition (GI) (SF-539) | growth inhibition (GI) (SNB-19) | growth inhibition (GI) (SNB-75) | growth inhibition (GI) (U-251) | growth inhibition (GI) (LOX IMVI) | growth inhibition (GI) (Malme-3M) | growth inhibition (GI) (M14) | growth inhibition (GI) (MDA-MB-435) | growth inhibition (GI) (SK-MEL-2) | growth inhibition (GI) (SK-MEL-28) | growth inhibition (GI) (SK-MEL-5) | growth inhibition (GI) (UACC-257) | growth inhibition (GI) (OVCAR-3) | growth inhibition (GI) (OVCAR-4) | growth inhibition (GI) (OVCAR-5) | growth inhibition (GI) (NCI/ADR-RES) | growth inhibition (GI) (SK-OV-3) | growth inhibition (GI) (786-0) | growth inhibition (GI) (CAKI-1) | growth inhibition (GI) (UO-31) | growth inhibition (GI) (MCF7) | growth inhibition (GI) (MDA-MB-231) | growth inhibition (GI) (Hs-578T) | growth inhibition (GI) (BT-549) | growth inhibition (GI) (T47D) | growth inhibition (GI) (MDA-MB-468)

Fc1ccc2nc(Cl)c(Cn3nnc(CSc4ccccc4)n3)cc2c1
2.5 µg/mL: MIC (Aspergillus fumigatus [2])
50 µg/mL: MIC (Candida albicans)
13 mm: zone of inhibition at 100 µg/mL (Aspergillus fumigatus [1])
active: growth inhibition (GI) (HL-60(TB)) | growth inhibition (GI) (MOLT-4) | growth inhibition (GI) (SR) | growth inhibition (GI) (A549) | growth inhibition (GI) (EKVX) | growth inhibition (GI) (NCI-H226) | growth inhibition (GI) (NCI-H522) | growth inhibition (GI) (COLO 205) | growth inhibition (GI) (HCC 2998) | growth inhibition (GI) (HCT-116) | growth inhibition (GI) (HCT-15) | growth inhibition (GI) (HT-29) | growth inhibition (GI) (KM12) | growth inhibition (GI) (SF-268) | growth inhibition (GI) (SF-295) | growth inhibition (GI) (SF-539) | growth inhibition (GI) (SNB-19) | growth inhibition (GI) (SNB-75) | growth inhibition (GI) (U-251) | growth inhibition (GI) (LOX IMVI) | growth inhibition (GI) (Malme-3M) | growth inhibition (GI) (M14) | growth inhibition (GI) (MDA-MB-435) | growth inhibition (GI) (SK-MEL-2) | growth inhibition (GI) (SK-MEL-28) | growth inhibition (GI) (SK-MEL-5) | growth inhibition (GI) (UACC-257) | growth inhibition (GI) (OVCAR-3) | growth inhibition (GI) (OVCAR-4) | growth inhibition (GI) (OVCAR-5) | growth inhibition (GI) (NCI/ADR-RES) | growth inhibition (GI) (SK-OV-3) | growth inhibition (GI) (786-0) | growth inhibition (GI) (CAKI-1) | growth inhibition (GI) (UO-31) | growth inhibition (GI) (MCF7) | growth inhibition (GI) (MDA-MB-231) | growth inhibition (GI) (Hs-578T) | growth inhibition (GI) (BT-549) | growth inhibition (GI) (T47D) | growth inhibition (GI) (MDA-MB-468)
